From the kinase profiling compilation of Christmann-Franck et al. (2016)

Experiments:
Assay in all cases: radiometric filter-binding kinase assay
MAPK15 (human) = MAPK15 (human) (UniProt Q8TD08)
EPHB3 (human) = EPHB3 (human) (UniProt P54753)
PRKCZ (human) = PRKCZ (human) (UniProt Q05513)
[1] = tested on: SGK1 (human), O00141 [S422D]
MAP3K11 (human) = MAP3K11 (human) (UniProt Q16584)
SRC (human) = SRC (human) (UniProt P12931)
MAPK14 (human) = MAPK14 (human) (UniProt Q16539)
MAPK1 (human) = MAPK1 (human) (UniProt P28482)
PKN2 (human) = PKN2 (human) (UniProt Q16513)
MKNK2 (human) = MKNK2 (human) (UniProt Q9HBH9)
[2] = target: PRKAA1 PRKAB2 PRKAG1 (human) (UniProt O43741+Q13131+P54619)
EEF2K (human) = EEF2K (human) (UniProt O00418)
HIPK3 (human) = HIPK3 (human) (UniProt Q9H422)
IKBKB (human) = IKBKB (human) (UniProt O14920)
MAP2K1 (human) = MAP2K1 (human) (UniProt Q02750)
PAK7 (human) = PAK7 (human) (UniProt Q9P286)
SYK (human) = SYK (human) (UniProt P43405)
MARK4 (human) = MARK4 (human) (UniProt Q96L34)
NEK6 (human) = NEK6 (human) (UniProt Q9HC98)
PIM2 (human) = PIM2 (human) (UniProt Q9P1W9)
PLK1 (human) = PLK1 (human) (UniProt P53350)
TTK (human) = TTK (human) (UniProt P33981)
PIM1 (human) = PIM1 (human) (UniProt P11309)
MAPK3 (human) = MAPK3 (human) (UniProt P27361)
MARK2 (human) = MARK2 (human) (UniProt Q7KZI7)
PAK4 (human) = PAK4 (human) (UniProt O96013)
TBK1 (human) = TBK1 (human) (UniProt Q9UHD2)
ERBB4 (human) = ERBB4 (human) (UniProt Q15303)
FGFR1 (human) = FGFR1 (human) (UniProt P11362)

Sequence of MAP3K11 (human) (Q16584 whole entry, looked up): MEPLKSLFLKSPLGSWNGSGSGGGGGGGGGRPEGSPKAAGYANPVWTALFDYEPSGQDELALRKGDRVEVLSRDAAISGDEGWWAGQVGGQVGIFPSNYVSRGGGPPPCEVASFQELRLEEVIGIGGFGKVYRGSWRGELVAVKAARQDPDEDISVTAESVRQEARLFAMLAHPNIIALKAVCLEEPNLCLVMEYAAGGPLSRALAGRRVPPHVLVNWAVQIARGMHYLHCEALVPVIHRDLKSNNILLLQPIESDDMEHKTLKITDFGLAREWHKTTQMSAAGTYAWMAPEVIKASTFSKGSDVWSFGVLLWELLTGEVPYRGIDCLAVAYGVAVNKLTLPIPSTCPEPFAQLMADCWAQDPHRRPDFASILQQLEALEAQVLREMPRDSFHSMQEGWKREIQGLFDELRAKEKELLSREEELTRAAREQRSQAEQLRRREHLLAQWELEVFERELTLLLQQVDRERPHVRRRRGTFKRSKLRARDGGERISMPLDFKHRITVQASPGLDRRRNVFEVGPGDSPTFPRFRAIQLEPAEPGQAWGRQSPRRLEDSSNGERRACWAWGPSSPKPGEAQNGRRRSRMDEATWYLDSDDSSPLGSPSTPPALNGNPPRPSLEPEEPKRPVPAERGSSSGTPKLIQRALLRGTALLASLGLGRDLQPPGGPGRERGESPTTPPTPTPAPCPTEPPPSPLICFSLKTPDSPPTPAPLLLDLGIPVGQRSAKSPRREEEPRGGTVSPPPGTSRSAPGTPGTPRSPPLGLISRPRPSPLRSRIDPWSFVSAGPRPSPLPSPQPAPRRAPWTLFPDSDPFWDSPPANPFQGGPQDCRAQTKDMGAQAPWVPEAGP
Sequence of EEF2K (human) (O00418 whole entry, looked up): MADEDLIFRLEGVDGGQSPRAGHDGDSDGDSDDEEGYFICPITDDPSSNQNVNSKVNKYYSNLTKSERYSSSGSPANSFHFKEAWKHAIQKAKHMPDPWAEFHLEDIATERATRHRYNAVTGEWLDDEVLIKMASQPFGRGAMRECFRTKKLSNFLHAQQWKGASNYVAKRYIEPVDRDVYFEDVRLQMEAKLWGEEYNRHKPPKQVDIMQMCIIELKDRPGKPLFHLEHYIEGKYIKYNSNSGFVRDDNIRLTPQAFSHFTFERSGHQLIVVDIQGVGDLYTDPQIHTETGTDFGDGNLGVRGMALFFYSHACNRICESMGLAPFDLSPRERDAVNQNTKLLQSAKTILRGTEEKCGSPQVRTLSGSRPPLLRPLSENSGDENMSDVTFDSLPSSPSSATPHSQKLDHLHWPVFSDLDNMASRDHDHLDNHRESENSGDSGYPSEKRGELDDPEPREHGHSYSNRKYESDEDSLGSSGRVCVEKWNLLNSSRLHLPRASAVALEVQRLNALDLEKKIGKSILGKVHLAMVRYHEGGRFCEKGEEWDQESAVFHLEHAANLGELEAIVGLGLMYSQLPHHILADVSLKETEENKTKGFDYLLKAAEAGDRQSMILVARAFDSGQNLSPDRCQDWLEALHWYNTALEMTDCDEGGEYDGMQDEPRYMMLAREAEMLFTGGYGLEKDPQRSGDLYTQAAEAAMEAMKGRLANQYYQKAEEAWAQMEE
Sequence of MARK4 (human) (Q96L34 whole entry, looked up): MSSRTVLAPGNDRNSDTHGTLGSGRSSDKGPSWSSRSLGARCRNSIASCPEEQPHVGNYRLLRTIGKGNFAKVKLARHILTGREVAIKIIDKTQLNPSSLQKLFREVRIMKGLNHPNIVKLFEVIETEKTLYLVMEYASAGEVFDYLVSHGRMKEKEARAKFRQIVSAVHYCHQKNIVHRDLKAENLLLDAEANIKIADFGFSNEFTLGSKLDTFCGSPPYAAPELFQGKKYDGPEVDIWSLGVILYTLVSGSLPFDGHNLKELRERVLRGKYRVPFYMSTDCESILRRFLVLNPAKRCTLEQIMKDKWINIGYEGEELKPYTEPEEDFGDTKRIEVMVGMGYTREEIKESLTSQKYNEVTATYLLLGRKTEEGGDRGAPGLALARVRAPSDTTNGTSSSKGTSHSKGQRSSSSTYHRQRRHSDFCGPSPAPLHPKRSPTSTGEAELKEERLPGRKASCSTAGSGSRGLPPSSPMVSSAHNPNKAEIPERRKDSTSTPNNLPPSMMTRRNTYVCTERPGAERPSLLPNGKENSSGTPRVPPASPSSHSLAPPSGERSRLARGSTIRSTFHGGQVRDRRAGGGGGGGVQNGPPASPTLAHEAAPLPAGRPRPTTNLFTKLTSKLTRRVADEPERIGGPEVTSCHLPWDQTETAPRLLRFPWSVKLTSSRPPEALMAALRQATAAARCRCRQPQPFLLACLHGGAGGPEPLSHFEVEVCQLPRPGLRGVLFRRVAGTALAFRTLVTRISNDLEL
Sequence of PIM1 (human) (P11309 whole entry, looked up): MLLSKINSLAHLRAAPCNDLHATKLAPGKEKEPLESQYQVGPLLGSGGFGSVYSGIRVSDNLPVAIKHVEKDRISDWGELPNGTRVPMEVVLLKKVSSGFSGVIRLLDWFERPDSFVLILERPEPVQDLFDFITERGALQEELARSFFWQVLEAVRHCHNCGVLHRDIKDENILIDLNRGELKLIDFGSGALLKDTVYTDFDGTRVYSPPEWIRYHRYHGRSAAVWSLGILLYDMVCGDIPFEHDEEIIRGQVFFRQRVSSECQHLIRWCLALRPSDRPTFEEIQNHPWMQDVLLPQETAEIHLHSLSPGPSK
Sequence of PAK4 (human) (O96013 whole entry, looked up): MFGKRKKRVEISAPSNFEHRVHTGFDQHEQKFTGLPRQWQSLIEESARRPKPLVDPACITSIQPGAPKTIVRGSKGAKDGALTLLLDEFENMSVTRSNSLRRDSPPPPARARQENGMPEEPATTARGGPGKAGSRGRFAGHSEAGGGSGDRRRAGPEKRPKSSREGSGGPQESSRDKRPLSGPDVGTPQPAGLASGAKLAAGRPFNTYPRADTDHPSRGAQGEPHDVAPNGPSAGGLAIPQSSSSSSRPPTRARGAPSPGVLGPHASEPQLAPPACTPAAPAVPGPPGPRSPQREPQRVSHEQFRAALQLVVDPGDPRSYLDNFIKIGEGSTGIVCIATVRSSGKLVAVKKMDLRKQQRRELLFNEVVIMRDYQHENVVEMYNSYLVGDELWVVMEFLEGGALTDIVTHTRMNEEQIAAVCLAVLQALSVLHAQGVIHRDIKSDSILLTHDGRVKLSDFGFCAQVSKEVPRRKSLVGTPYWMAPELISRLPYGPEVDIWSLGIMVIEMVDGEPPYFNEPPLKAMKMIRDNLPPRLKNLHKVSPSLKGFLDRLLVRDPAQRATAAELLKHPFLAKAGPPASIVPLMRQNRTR
Sequence of MAPK15 (human) (Q8TD08 whole entry, looked up): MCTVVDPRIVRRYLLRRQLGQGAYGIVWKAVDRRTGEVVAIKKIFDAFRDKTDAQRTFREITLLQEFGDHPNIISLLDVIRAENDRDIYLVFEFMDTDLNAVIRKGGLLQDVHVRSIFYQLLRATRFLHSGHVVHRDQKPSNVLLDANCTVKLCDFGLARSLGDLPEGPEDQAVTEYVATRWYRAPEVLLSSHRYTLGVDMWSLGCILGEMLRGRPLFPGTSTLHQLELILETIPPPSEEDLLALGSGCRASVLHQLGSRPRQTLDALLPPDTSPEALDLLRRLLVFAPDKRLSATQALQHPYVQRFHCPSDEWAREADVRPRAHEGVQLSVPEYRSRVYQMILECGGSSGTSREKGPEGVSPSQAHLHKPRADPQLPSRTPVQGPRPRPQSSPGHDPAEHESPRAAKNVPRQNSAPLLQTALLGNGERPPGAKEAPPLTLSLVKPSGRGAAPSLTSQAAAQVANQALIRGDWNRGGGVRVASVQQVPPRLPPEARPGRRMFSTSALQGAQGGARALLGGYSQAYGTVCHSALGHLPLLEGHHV
Sequence of HIPK3 (human) (Q9H422 whole entry, looked up): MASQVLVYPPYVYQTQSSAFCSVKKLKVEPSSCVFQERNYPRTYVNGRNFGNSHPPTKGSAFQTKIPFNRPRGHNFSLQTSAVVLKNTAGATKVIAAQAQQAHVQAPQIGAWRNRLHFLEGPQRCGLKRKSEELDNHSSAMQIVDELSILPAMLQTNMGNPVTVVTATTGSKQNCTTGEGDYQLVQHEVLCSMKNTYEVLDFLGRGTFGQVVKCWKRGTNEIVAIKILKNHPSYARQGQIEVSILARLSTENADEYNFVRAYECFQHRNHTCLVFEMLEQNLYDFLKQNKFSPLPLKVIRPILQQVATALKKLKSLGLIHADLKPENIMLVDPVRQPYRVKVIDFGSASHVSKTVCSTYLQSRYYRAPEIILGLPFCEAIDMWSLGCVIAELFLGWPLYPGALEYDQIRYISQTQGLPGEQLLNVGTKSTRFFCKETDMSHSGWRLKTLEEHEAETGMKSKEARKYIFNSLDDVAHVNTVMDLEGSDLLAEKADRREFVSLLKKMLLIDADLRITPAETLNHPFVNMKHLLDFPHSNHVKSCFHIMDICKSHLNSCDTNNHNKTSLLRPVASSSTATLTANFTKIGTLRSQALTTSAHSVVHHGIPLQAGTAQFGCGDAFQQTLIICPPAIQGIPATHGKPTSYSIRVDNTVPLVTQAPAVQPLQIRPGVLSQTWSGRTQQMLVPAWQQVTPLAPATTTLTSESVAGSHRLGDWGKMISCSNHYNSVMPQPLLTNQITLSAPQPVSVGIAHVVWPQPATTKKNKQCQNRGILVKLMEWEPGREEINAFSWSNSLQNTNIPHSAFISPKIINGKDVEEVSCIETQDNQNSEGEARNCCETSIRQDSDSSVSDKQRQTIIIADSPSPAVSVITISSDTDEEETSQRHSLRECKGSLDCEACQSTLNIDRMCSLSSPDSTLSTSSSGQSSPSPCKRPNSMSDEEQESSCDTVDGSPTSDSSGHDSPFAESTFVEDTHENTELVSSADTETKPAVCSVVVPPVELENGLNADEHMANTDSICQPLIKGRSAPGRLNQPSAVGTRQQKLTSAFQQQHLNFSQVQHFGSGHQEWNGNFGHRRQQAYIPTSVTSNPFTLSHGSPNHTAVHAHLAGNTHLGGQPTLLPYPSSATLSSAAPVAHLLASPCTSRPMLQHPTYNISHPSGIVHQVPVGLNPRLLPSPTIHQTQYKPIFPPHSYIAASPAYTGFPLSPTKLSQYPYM

residual activity (EPHB3 (human); compound 0.01 µM): 106% | residual activity (EPHB3 (human); compound 0.1 µM): 107% | residual activity (EPHB3 (human); compound 1.0 µM): 91% | residual activity (PRKCZ (human); compound 0.01 µM): 113% | residual activity (PRKCZ (human); compound 0.1 µM): 105% | residual activity (PRKCZ (human); compound 1.0 µM): 72% | residual activity ([1]; compound 0.01 µM): 96% | residual activity ([1]; compound 0.1 µM): 96% | residual activity ([1]; compound 1.0 µM): 37% | residual activity (MAP3K11 (human); compound 0.01 µM): 100% | residual activity (MAP3K11 (human); compound 0.1 µM): 110% | residual activity (MAP3K11 (human); compound 1.0 µM): 87% | residual activity (SRC (human); compound 0.01 µM): 101% | residual activity (SRC (human); compound 0.1 µM): 105% | residual activity (SRC (human); compound 1.0 µM): 97% | residual activity (MAPK14 (human); compound 0.01 µM): 105% | residual activity (MAPK14 (human); compound 0.1 µM): 109% | residual activity (MAPK14 (human); compound 1.0 µM): 103% | residual activity (MAPK1 (human); compound 0.01 µM): 117% | residual activity (MAPK1 (human); compound 0.1 µM): 111% | residual activity (MAPK1 (human); compound 1.0 µM): 99% | residual activity (PKN2 (human); compound 0.01 µM): 90% | residual activity (PKN2 (human); compound 0.1 µM): 102% | residual activity (PKN2 (human); compound 1.0 µM): 82% | residual activity (MKNK2 (human); compound 0.01 µM): 91% | residual activity (MKNK2 (human); compound 0.1 µM): 100% | residual activity (MKNK2 (human); compound 1.0 µM): 106% | residual activity ([2]; compound 0.01 µM): 107% | residual activity ([2]; compound 0.1 µM): 111% | residual activity ([2]; compound 1.0 µM): 87% | residual activity (EEF2K (human); compound 0.01 µM): 108% | residual activity (EEF2K (human); compound 0.1 µM): 100% | residual activity (EEF2K (human); compound 1.0 µM): 97% | residual activity (HIPK3 (human); compound 0.01 µM): 111% | residual activity (HIPK3 (human); compound 0.1 µM): 105% | residual activity (HIPK3 (human); compound 1.0 µM): 106% | residual activity (IKBKB (human); compound 0.01 µM): 105% | residual activity (IKBKB (human); compound 0.1 µM): 112% | residual activity (IKBKB (human); compound 1.0 µM): 98% | residual activity (MAP2K1 (human); compound 0.01 µM): 86% | residual activity (MAP2K1 (human); compound 0.1 µM): 101% | residual activity (MAP2K1 (human); compound 1.0 µM): 84% | residual activity (PAK7 (human); compound 0.01 µM): 97% | residual activity (PAK7 (human); compound 0.1 µM): 101% | residual activity (PAK7 (human); compound 1.0 µM): 94% | residual activity (SYK (human); compound 0.01 µM): 109% | residual activity (SYK (human); compound 0.1 µM): 105% | residual activity (SYK (human); compound 1.0 µM): 103% | residual activity (MARK4 (human); compound 0.01 µM): 106% | residual activity (MARK4 (human); compound 0.1 µM): 114% | residual activity (MARK4 (human); compound 1.0 µM): 102% | residual activity (NEK6 (human); compound 0.01 µM): 98% | residual activity (NEK6 (human); compound 0.1 µM): 101% | residual activity (NEK6 (human); compound 1.0 µM): 97% | residual activity (PIM2 (human); compound 0.01 µM): 97% | residual activity (PIM2 (human); compound 0.1 µM): 100% | residual activity (PIM2 (human); compound 1.0 µM): 97% | residual activity (PLK1 (human); compound 0.01 µM): 95% | residual activity (PLK1 (human); compound 0.1 µM): 113% | residual activity (TTK (human); compound 0.01 µM): 90% | residual activity (TTK (human); compound 0.1 µM): 98% | residual activity (TTK (human); compound 1.0 µM): 82% | residual activity (PIM1 (human); compound 0.01 µM): 99% | residual activity (PIM1 (human); compound 0.1 µM): 100% | residual activity (PIM1 (human); compound 1.0 µM): 98% | residual activity (MAPK3 (human); compound 0.01 µM): 93% | residual activity (MAPK3 (human); compound 0.1 µM): 106% | residual activity (MAPK3 (human); compound 1.0 µM): 94% | residual activity (MARK2 (human); compound 0.01 µM): 113% | residual activity (MARK2 (human); compound 0.1 µM): 114% | residual activity (MARK2 (human); compound 1.0 µM): 109% | residual activity (PAK4 (human); compound 0.01 µM): 108% | residual activity (PAK4 (human); compound 0.1 µM): 117% | residual activity (PAK4 (human); compound 1.0 µM): 106% | residual activity (TBK1 (human); compound 0.01 µM): 110% | residual activity (TBK1 (human); compound 0.1 µM): 115% | residual activity (TBK1 (human); compound 1.0 µM): 109% | residual activity (ERBB4 (human); compound 0.01 µM): 106% | residual activity (ERBB4 (human); compound 0.1 µM): 107% | residual activity (ERBB4 (human); compound 1.0 µM): 106% | residual activity (FGFR1 (human); compound 0.01 µM): 119% | residual activity (FGFR1 (human); compound 0.1 µM): 119% | residual activity (FGFR1 (human); compound 1.0 µM): 110%
Structure (SMILES): CNc1nc(-c2ccc3c(N)n[nH]c3c2)cc(N2C[C@@H](C(=O)NC3CCCCC3)CC[C@H]2C)n1
residual activity (MAPK15 (human); compound 0.01 µM): 106% | residual activity (MAPK15 (human); compound 0.1 µM): 117% | residual activity (MAPK15 (human); compound 1.0 µM): 107%
